Ten compounds from US11505536B2, “Dihydroorotate dehydrogenase inhibitors” (Janssen Biotech, Inc., priority 2019, dated 2022) can be followed below.

Molecules are shown by their SMILES.

In one assay the target is human DHODH (Homo sapiens (Human), UniProt Q02127). As to the kind of experiment: DHODH Enzymatic Assay. To be noted: purified human DHODH, DCIP absorbance, end-point mode; read-out: hDHODH IC50. Type of assay: biochemical. An outline of the steps:
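Purified human DHODH in […] HEPES pH 7.5, 150 mM NaCl, 0.5 mM EDTA, 0.1% Triton X-100; reaction started with substrate mix of 20 mM DHO, 5 mM CoQ6, 1 mM DCIP. End-point read as DCIP reduction (absorbance ~600 nm) after brequinar quench.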

Assay [1] relates to MOLM-13 cells (human acute myeloid leukemia cells). As to the kind of experiment: MOLM-13 Cellular Assay. The class given is cell-based. The settings on record: Homo sapiens, MOLM-13, 72 h, 72 hours exposure, cell viability by CellTiter-Glo. The method in brief: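 MOLM-13 AML cells, seeded at 5,000/well in RPMI 1640 with 10% FBS, were treated with compounds right after seeding for 72 h at 37 °C, 5% CO2. Viability read by CellTiter-Glo luminescence.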
In general terms: Cellular ATP, detected with luciferase, serves as a proxy for viable cell number.

Chain of human DHODH (Q02127 whole entry): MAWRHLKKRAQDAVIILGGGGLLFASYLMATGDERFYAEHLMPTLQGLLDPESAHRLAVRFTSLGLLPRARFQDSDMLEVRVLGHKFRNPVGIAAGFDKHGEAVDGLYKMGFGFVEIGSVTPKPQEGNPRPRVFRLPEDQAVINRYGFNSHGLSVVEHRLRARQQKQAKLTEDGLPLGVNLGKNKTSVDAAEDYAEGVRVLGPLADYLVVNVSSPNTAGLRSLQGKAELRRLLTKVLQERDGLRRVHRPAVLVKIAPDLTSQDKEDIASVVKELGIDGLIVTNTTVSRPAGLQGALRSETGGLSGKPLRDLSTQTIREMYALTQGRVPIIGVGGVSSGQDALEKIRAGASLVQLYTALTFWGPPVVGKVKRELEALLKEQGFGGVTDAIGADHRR

In general, IC50 refers to the point on the concentration scale where inhibition reaches its midpoint. With `C=C(C)c1cn(-c2cc(C)ccc2F)c(=O)c2cc(F)c(-n3nc(CO)n(CC)c3=O)cc12` [Example 42, 6-(4-Ethyl-3-(hydroxymethyl)-5-oxo-4,5-dihydro-1H-1,2,4-triazol-1-yl)-7-fluoro-2-(2-fluoro-5-methylphenyl)-4-(prop-1-en-2-yl)isoquinolin-1(2H)-one], the IC50 was 1.69 nM at human DHODH and 0.9 nM in assay [1].

As for `CCc1ccccc1-n1cc(C(C)C)c2cc(-n3nc(CO)n(CC)c3=O)c(F)cc2c1=O` [Example 89, 6-(4-Ethyl-3-(hydroxymethyl)-5-oxo-4,5-dihydro-1H-1,2,4-triazol-1-yl)-2-(2-ethylphenyl)-7-fluoro-4-isopropylisoquinolin-1(2H)-one], the IC50 at human DHODH stood at 1.21 nM; in assay [1], 2 nM.

Take `CCn1c(CO)nn(-c2cc3c(C(C)C)cn([C@H]4CCCC[C@@H]4C)c(=O)c3cc2F)c1=O` (stereo in doubt) [Example 121, 6-(4-Ethyl-3-(hydroxymethyl)-5-oxo-4,5-dihydro-1H-1,2,4-triazol-1-yl)-7-fluoro-4-isopropyl-2-((1S*,2S*)-2-methylcyclohexyl)isoquinolin-1(2H)-one]: the IC50 on human DHODH was 7.41 nM; in assay [1], 4 nM.

With `CCn1c(CO)nn(-c2cc3c(C(C)C)cn(-c4nccc(OC)c4Cl)c(=O)c3cc2F)c1=O` [Example 110, 2-(3-Chloro-4-methoxypyridin-2-yl)-6-(4-ethyl-3-(hydroxymethyl)-5-oxo-4,5-dihydro-1H-1,2,4-triazol-1-yl)-7-fluoro-4-isopropylisoquinolin-1(2H)-one], the IC50 at human DHODH was 10.4 nM; in assay [1], 20 nM.

`CCn1c(CO)nn(-c2ccc3c(=O)n(-c4ccccc4C)cc(N(C)C)c3c2)c1=O` [Example 26, 4-(Dimethylamino)-6-(4-ethyl-3-(hydroxymethyl)-5-oxo-4,5-dihydro-1H-1,2,4-triazol-1-yl)-2-(o-tolyl)isoquinolin-1(2H)-one]: the IC50 was 46.5 nM on human DHODH and 20 nM in assay [1].

`C=C(C)c1cn(-c2ccccc2C)c(=O)c2ccc(-n3nc(CO)n(CC)c3=O)cc12` [Example 15, 6-(4-Ethyl-3-(hydroxymethyl)-5-oxo-4,5-dihydro-1H-1,2,4-triazol-1-yl)-4-(prop-1-en-2-yl)-2-(o-tolyl)isoquinolin-1(2H)-one]: the results for the 50% inhibitory concentration (IC50) (at human DHODH; in assay [1]) were 0.634 nM and 0.4 nM, respectively.

With `C=C(C)c1cn(-c2c(F)cccc2Cl)c(=O)c2ccc(-n3nc(CO)n(CC)c3=O)cc12` [Example 5, 2-(2-Chloro-6-fluorophenyl)-6-(4-ethyl-3-(hydroxymethyl)-5-oxo-4,5-dihydro-1H-1,2,4-triazol-1-yl)-4-(prop-1-en-2-yl)isoquinolin-1(2H)-one], the IC50 is 1.29 nM on human DHODH and 0.9 nM in assay [1].

In the case of `CCn1c(CO)nn(-c2cc3c(C(C)C)cn(C(COC)COC)c(=O)c3cc2F)c1=O` [Example 112, 2-(1,3-Dimethoxypropan-2-yl)-6-(4-ethyl-3-(hydroxymethyl)-5-oxo-4,5-dihydro-1H-1,2,4-triazol-1-yl)-7-fluoro-4-isopropylisoquinolin-1(2H)-one], the IC50 at human DHODH was 35.3 nM; in assay [1] it was 30 nM.

As for `CCn1c(CO)nn(-c2cc3c(C(C)C)cn(-c4ccnc(O)c4C)c(=O)c3cc2F)c1=O` [Example 141, 6-(4-Ethyl-3-(hydroxymethyl)-5-oxo-4,5-dihydro-1H-1,2,4-triazol-1-yl)-7-fluoro-2-(2-hydroxy-3-methylpyridin-4-yl)-4-isopropylisoquinolin-1(2H)-one], the IC50 on human DHODH was 10.5 nM; in assay [1], greater than 100 nM.

As for `CCn1c(CO)nn(-c2ccc3c(=O)n(-c4c(F)cccc4Cl)nc(C(C)C)c3c2)c1=O` [Example 19, 2-(2-Chloro-6-fluorophenyl)-6-(4-ethyl-3-(hydroxymethyl)-5-oxo-4,5-dihydro-1H-1,2,4-triazol-1-yl)-4-isopropylphthalazin-1(2H)-one], the IC50 on human DHODH was 4.96 nM; in assay [1] it was 4 nM.
